Legend:
D2 receptors = D2 receptors (Homo sapiens, UniProt P14416); settings: in therapeutic models; cited from earlier work
5HT reuptake = settings: in therapeutic models; cited from earlier work
[1] = in vivo; cited from earlier work
[2] = rodents; cited from earlier work
[3] = Comparative equilibrium solubility of salts of compound 1; settings: pH printed beside the equilibrium solubility

Sequence of D2 receptors (P14416 whole entry): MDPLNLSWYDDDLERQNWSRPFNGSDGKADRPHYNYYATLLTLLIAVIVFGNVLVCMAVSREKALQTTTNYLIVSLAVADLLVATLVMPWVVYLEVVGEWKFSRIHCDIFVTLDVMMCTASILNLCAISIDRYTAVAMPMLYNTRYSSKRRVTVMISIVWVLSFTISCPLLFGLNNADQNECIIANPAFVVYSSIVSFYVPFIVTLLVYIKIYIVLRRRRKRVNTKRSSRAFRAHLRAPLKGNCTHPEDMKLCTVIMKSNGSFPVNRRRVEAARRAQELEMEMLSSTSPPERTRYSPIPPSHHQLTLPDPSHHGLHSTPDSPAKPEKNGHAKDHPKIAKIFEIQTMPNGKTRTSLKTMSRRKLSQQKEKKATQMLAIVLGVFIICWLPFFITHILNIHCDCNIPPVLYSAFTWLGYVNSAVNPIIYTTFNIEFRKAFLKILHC

CC1Oc2c(cccc2N2CCN(CCCc3c[nH]c4ccc(F)cc34)CC2)NC1=O (stereo not drawn) [compound 1, 8-{4-[3-(5-fluoro-1H-indol-3-yl)-propyl]-piperazin-1-yl}-2-methyl-4H-benzo[1,4]oxazin-3-one]
activity at D2 receptors (D2 receptors): antagonistic activity
activity against 5HT reuptake (5HT reuptake): inhibitory activity
activity in therapeutic models sensitive to clinically relevant antipsychotics, antidepressants, anxiolytics, Parkinson's disease [1]: active
propensity to induce catalepsy [2]: low propensity
pH ([3]; listed as freebase (1)): 4.72

CC1Oc2c(cccc2N2CCN(CCCc3c[nH]c4ccc(F)cc34)CC2)NC1=O (stereo not drawn) [compound 2]
pH ([3]; listed as glucuronate (2)): 4.25
